In paper PMC11013284, “Chemoselective Synthesis and Anti-Kinetoplastidal Properties of 2,6-Diaryl-4H-tetrahydro-thiopyran-4-one S-Oxides: Their Interplay in a Cascade of Redox Reactions from Diarylideneacetones” (Molecules, 2024):
“Also recorded” adds a separate entry of the source. Where two headings read alike, the source gives them in different places.

Assays:
[1] = tested on: Trypanosoma brucei brucei trypomastigotes, suramin-sensitive strain (Squib 427); experiment: T. b. brucei growth/viability assay (resazurin); type: cell-based; settings: for IC50: 3 days; for anti-trypanosomal activity (IC50): Trypanosoma (T. cruzi and T. b. brucei)
Description: After 3 days, parasite growth was assessed fluorimetrically following the addition of resazurin. After 24 h at 37 °C, fluorescence was measured (λex = 550 nm, λem = 590 nm). The results were expressed as a percentage reduction in parasite growth/viability compared to control wells, and a 50% inhibitory concentration (IC50) was calculated.

[2] = tested on: Trypanosoma cruzi (Tulahuen CL2 β-galactosidase) amastigotes in hMRC-5SV2 cells; experiment: T. cruzi intracellular amastigote assay (β-galactosidase/CPRG); type: cell-based; settings: intracellular amastigotes, 7 days; for IC50: read-out: IC50 T. cruzi intramacrophage amastigotes (converted)
Description: A nifurtimox-sensitive strain (Tulahuen CL2 β-galactosidase) in human lung fibroblast hMRC-5SV2 cells was incubated for 7 days in 96-well plates with five concentrations of compound (64, 16, 4, 1, and 0.25 μM). The parasitic burden was evaluated through the activity of the enzyme β-galactosidase on a specific chlorophenol red ß-D-galactopyranoside (CPRG) substrate. Live parasites converted the yellow-orange CPRG substrate into the red chromophore chlorophenol red, yielding a dark-red solution, which could be quantitatively measured at 540 nm after 4 h of incubation at 37 °C. The results were expressed as a percentage reduction in parasite growth/viability compared to control wells, and an IC50 was calculated.

[3] = tested on: L. infantum (MHOM/MA(BE)/67) amastigotes in primary peritoneal mouse macrophages; experiment: L. infantum intramacrophage amastigote assay (microscopic burden); type: cell-based, Leishmania infantum; settings: 5 days, mouse macrophages as host
Description: L. infantum (MHOM/MA(BE)/67 strain) amastigote were incubated for 5 days in 96-well plates with five concentrations of compound (64, 16, 4, 1, and 0.25 μM). Primary peritoneal mouse macrophages were used as host cells. Parasite burdens (i.e., the number of amastigotes per macrophage) were microscopically assessed. The results were expressed as a percentage reduction in parasite burden compared to untreated control wells, and an IC50 was calculated.

in vitro = settings: human, CC50 hMRC-5 (cytotoxicity)
Description: (§1) The cytotoxicity of compounds was evaluated toward human diploid embryonic lung fibroblast hMRC-5SV2 cells, derived from fetal lung tissue and first described in 1970. hMRC-5SV2 cells were cultured in 96-well plates with five concentrations of the compound (64, 16, 4, 1, and 0.25 μM). After 3 days of incubation, the cell viability was assessed fluorimetrically after the addition of resazurin, and fluorescence was measured (λex = 550 nm, λem = 590 nm). The results were expressed as a percentage reduction in cell growth/viability compared to control wells, and a 50% cytotoxic concentration (CC50) was calculated. The reference cytotoxic drugs were tamoxifen or ivermectin. Additionally, toxicity toward mouse macrophages was qualitatively observed. Three concentrations were included (64, 16, and 4 µM), and the range of toxicity was ranked from the least toxic to the most toxic compound.

murine macrophages = experiment: Qualitative toxicity toward mouse macrophages; settings: concentration at which toxicity was observed; 64, 16 and 4 µM tested
Description: as §1

[4] = Solubility observations (crystals in assay, insolubility in solvents); type: physicochemical; settings: for presence of crystals, concentration range / presence of crystals (asterisk mark): noted in L. donovani assay, Table S5
[5] = tested on: WT LV9 L. donovani intramacrophage amastigotes; experiment: L. donovani intramacrophage amastigote assay; type: cell-based, Leishmania donovani; settings: WT LV9, ± SD in Tables S5/S6, read-out: IC50 L. donovani intramacrophage amastigotes
[6] = tested on: human diploid embryonic lung fibroblast hMRC-5SV2 cells; experiment: in vitro
Description: as §1

[7] = Trypanosoma cruzi, TULAHUEN, 168 h
[8] = Leishmania infantum, Macrophage, 120 h
[9] = bracketed value after the intramacrophage IC50 (Table S5), Table S6

SMILES | IC50 ([1]; Trypanosoma brucei, 72 h) [µM] | IC50 [2, 7] [µM] | IC50 [3, 8] [µM] | CC50 at 3 days (in vitro) [µM] | Toxicity (T) observed toward murine macrophages (murine macrophages) | IC50 [5] [µM] | observed macrophage death / lysis observed at (macrophages; [9]) [µM] | IC50 [1] [µM] | IC50 [2] [µM] | IC50 [3] [µM] | CC50 [6] [µM] | further results
COc1cc(Br)c(OC)c(/C=C/C(=O)/C=C/c2cc(OC)cc(Br)c2OC)c1 [1q] | 0.9 | 0.9 | 10.4 | 0.8 | T1 (T1 = 64) | – | – | – | – | – | – | –
Cc1ccc(/C=C/C(=O)/C=C/c2ccc(C)cc2)cc1 [1c] | 9.3 | 41.9 | > 64 | 32.5 | – | – | – | – | – | – | – | presence of crystals, concentration range [4]: 25 to 100 µM
O=C1CC(c2ccccc2)SC(c2ccccc2)C1 (racemic) [2a] | – | – | – | – | – | > 100 | 200 | – | – | – | – | presence of crystals, concentration range [4]: 6.25 to 200 µM
Cc1ccc(/C=C/C(=O)/C=C/c2ccccc2)cc1 [1’a] | – | – | – | – | – | – | – | 0.5 | 2.6 | 32.5 | 47 | presence of crystals, concentration range [4]: 3.1 to 200 µM
O=C1CC(c2c(Cl)cccc2Cl)SC(c2c(Cl)cccc2Cl)C1 (racemic) [2h] | – | – | – | – | – | – | – | > 64 | > 64 | 2 | > 64 | presence of crystals, concentration range [4]: 12.5 to 200 µM
COc1ccc(/C=C/C(=O)/C=C/c2ccc(OC)c(OC)c2)cc1OC [1j] | 2.1 | 2.1 | 30 | 6.9 | T1 (T1 = 64) | – | – | – | – | – | – | –
Cc1ccc(/C=C/C(=O)/C=C/c2ccc(C)o2)o1 [1za] | 8.2 | 2.2 | 8.1 | 5.4 | T2 (T2 = 16) | – | – | – | – | – | – | –
COc1ccc(C2CC(=O)CC(c3ccc(OC)cc3)[S+]2[O-])cc1 (stereo not drawn) [3″d, (anti)- and (syn)-cis-2,6-Di-(p-anisyl)-4H-tetrahydro-thiopyran-4-one 1-oxides] | – | – | – | – | T1 (T1 = 64) | 35 | – | 2.4 | 8.5 | 27.3 | – | IC50 T. cruzi intramacrophage amastigotes [2]: moderate potency; IC50 L. infantum intramacrophage amastigotes [3]: moderate potency; CC50 ([6]; human, 3 days): 32 µM
O=C1CC(c2ccccn2)S(=O)(=O)C(c2ccccn2)C1 (racemic) [4w, (±)-trans-2,6-Di-(pyridin-2-yl)-4H-tetrahydrothiopyran-4-one 1,1-dioxide] | – | 0.4 | 2 | 7.9 | T3 (T3 = 4) | 5 | – | 0.5 | – | – | – | anti-trypanosomal activity (IC50) [1]: high nanomolar range; IC50 L. infantum intramacrophage amastigotes [3]: excellent potency
COc1ccc(/C=C/C(=O)/C=C/c2ccccc2)cc1 [1’h] | – | – | – | – | – | 17.4 ± 1.9 | > 37.5 | – | – | – | – | presence of crystals (asterisk mark) [4]: ** (presence of crystals at > 100 µM)
O=C1CC(c2ccccn2)[S+]([O-])C(c2ccccn2)C1 (stereo not drawn) [3w, (±)-trans-2,6-Di-(pyridin-2-yl)-4H-tetrahydrothiopyran-4-one 1-oxide] | 0.1 | 0.8 | 2 | 8 | T3 (T3 = 4) | – | – | – | – | – | – | IC50 ([5]; Leishmania donovani): 25 µM
O=C1CC(c2ccccn2)S(=O)(=O)C(c2ccccn2)C1 (stereo not drawn) [4′w, cis-2,6-Di-(pyridin-2-yl)-4H-tetrahydrothiopyran-4-one 1,1-dioxide] | – | – | – | – | T3 (T3 = 4) | 1.6 | – | 0.1 | 0.4 | 2 | – | anti-trypanosomal activity (IC50) [1]: high nanomolar range; IC50 L. infantum intramacrophage amastigotes [3]: excellent potency; CC50 ([6]; human, 3 days): 7.5 µM
O=C1CC(c2ccc(Cl)cc2)SC(c2ccc(Cl)cc2)C1 (racemic) [2f] | – | – | – | – | – | 16.1 ± 1.4 | > 75 | 27.4 | > 64 | 33.2 | > 64 | presence of crystals (asterisk mark) [4]: * (presence of crystals at > 50 µM)
COc1ccc(C2CC(=O)CC(c3ccc(OC)cc3)S2(=O)=O)cc1 (racemic) [4d, (±)-trans-2,6-Di-(p-anisyl)-4H-tetrahydrothiopyran-4-one 1,1-dioxide] | – | ≥ 64 | – | ≥ 64 | – | – | – | 43.3 | – | ≥ 64 | – | anti-trypanosomal activity (IC50) [1]: almost inactive; also recorded: completely inactive; IC50 ([5]; Leishmania donovani): > 100 µM; solubility (observation) ([4]; almost all types of solvent, even at very low concentrations): Solubility issues; also recorded: insolubility
CN(C)c1ccc(/C=C/C(=O)/C=C/c2nccs2)cc1 [1’s] | – | – | – | – | – | 11.5 ± 0.6 | > 37.5 | 0.4 | 11 | 38 | > 64 | presence of crystals (asterisk mark) [4]: * (presence of crystals at > 50 µM)
COc1ccc(C2CC(=O)CC(c3ccc(OC)c(OC)c3)S2)cc1OC (racemic) [2j] | – | – | – | – | – | 19.3 ± 7.1 | > 150 | 8.1 | 7.3 | 32.5 | 9.3 | –
O=C1CC(c2ccco2)SC(c2ccco2)C1 (racemic) [2z] | – | – | – | – | – | 3.2 ± 0.8 | > 150 | > 64 | > 64 | > 64 | > 64 | –
Cc1ccccc1C1CC(=O)CC(c2ccccc2C)S1 (racemic) [2b] | – | – | – | – | – | 14.5 ± 1.9 | > 50 | > 64 | ≥ 64 | 43.1 | > 64 | presence of crystals (asterisk mark) [4]: ** (presence of crystals at > 100 µM)
Cc1ccc(C2CC(=O)CC(c3ccc(C)cc3)S2)cc1 (racemic) [2c] | – | – | – | – | – | 13.5 ± 2.8 | 200 | 0.8 | 3.7 | > 64 | 24.2 | presence of crystals (asterisk mark) [4]: ** (presence of crystals at > 100 µM)
O=C(/C=C/c1ccco1)/C=C/c1ccco1 [1z] | 7.6 | 39.9 | 32.5 | > 64 | T1 (T1 = 64) | – | – | – | – | – | – | IC50 ([5]; Leishmania donovani): 14 ± 2.6 µM; observed macrophage death / lysis observed at (macrophages): > 50 µM
O=C(/C=C/c1ccccn1)/C=C/c1ccccn1 [1w] | 0.03 | 0.3 | 0.4 | 1.9 | T3 (T3 = 4) | – | – | – | – | – | – | –
COc1ccc(OC)c(/C=C/C(=O)/C=C/c2cc(OC)ccc2OC)c1 [1m] | 0.8 | 1.1 | 10.4 | 1 | T1 (T1 = 64) | – | – | – | – | – | – | –
O=C1CC(c2ccccn2)[S+]([O-])C(c2ccccn2)C1 (mixture of isomers) [3′w, (syn/anti)-cis-2,6-Di-(pyridin-2-yl)-4H-tetra-hydrothiopyran-4-one 1-oxide, as diastereoisomeric mixture] | 0.1 | 0.5 | 2 | 8.1 | T3 (T3 = 4) | – | – | – | – | – | – | IC50 ([5]; Leishmania donovani): 2.5 µM
COc1ccc(/C=C/C(=O)/C=C/c2ccc3ccccc3c2)cc1 [1’j] | – | – | – | – | – | 58.2 ± 8 | > 150 | – | – | – | – | presence of crystals (asterisk mark) [4]: ** (presence of crystals at > 100 µM)
O=C1CC(c2ccccc2Cl)SC(c2ccccc2Cl)C1 (racemic) [2e] | – | – | – | – | – | 14.2 ± 1.3 | > 150 | > 64 | > 64 | 32 | > 64 | –
